Data published in patent US11840686B2, “Modulation of prekallikrein (PKK) expression” (Ionis Pharmaceuticals, Inc., priority 2013, dated 2023).
Strand notation (5' to 3'): a small letter for the sugar, then the base; units joined by * are phosphorothioate-linked, units joined directly phosphodiester-linked; [ ] holds rarer units or linkages, { } end groups; capitals alone tell only the bases. e = 2'-O-(2-methoxyethyl) (MOE); [5mC] = 5-methylcytosine; d = 2'-deoxy (DNA)

Experiments:
[1] = tested on: basal vascular permeability; test: Combination of PKK and Factor 12 antisense oligonucleotides on basal vascular permeability (Example 16); type: in vivo, mouse; conditions: positive control: PBS + HOE-140 30 μg ip
Procedure: Mice were treated with varying doses of ISIS 410944, an antisense oligonucleotide targeting Factor 12, and ISIS 482584 in a basal vascular permeability model.
Group 1 consisted of 8 mice and was treated with PBS administered subcutaneously twice a week for 3 weeks. No other treatment was administered to Group 1 which served as a control group to measure the basal levels of vascular permeability.
Group 2 consisted of 4 mice and was treated with PBS administered subcutaneously twice a week for 3 weeks. At the end of the treatment period, the mice were intraperitoneally administered 30 μg of HOE-140. Group 2 served as a positive control for inhibition of basal vascular permeability.
Groups 3, 4, 5, 6, and 7 consisted of 8 mice each and were treated with 2.5 mg/kg, 5 mg/kg, 10 mg/kg, 20 mg/kg, or 40 mg/kg (corresponding to 5 mg/kg, 10 mg/kg, 20 mg/kg, 40 mg/kg, or 80 mg/kg per week), respectively of ISIS 482584 and ISIS 410944 each administered subcutaneously twice a week for 3 weeks. Groups 3-7 served as the experimental treatment groups for examining the effect of ISIS 410944 and ISIS 482584 on basal vascular permeability.
All the groups were then injected with 30 mg/kg of Evans Blue solution in the tail vein. The mice were sacrificed 30 min after the Evans Blue solution administration and colons, feet, ears, and intestines were harvested.
The harvested tissues from the feet, colon, intestines, and ears were placed in formamide solution overnight to leach out the Evans Blue dye. The formamide solution containing feet and ear tissue was heated to 55° C. and left overnight. Higher OD values are associated with higher levels of permeability.

[2] = tested on: mouse PKK mRNA; test: Antisense inhibition of murine PKK mRNA in mouse primary hepatocytes (Example 9); type: cell-based; conditions: Cytofectin; for % inhibition of mouse PKK mRNA levels: approx. 24 hours
Procedure: Antisense oligonucleotides targeting a murine PKK nucleic acid were designed and tested for their effects on PKK mRNA in vitro. Cultured mouse primary hepatocytes at a density of 10,000 cells per well were transfected using Cytofectin reagent with 12.5 nM, 25.0 nM, 50.0 nM, 100.0 nM, and 200.0 nM of antisense oligonucleotide. After a treatment period of approximately 24 hours, RNA was isolated from the cells and mouse PKK mRNA levels were measured by quantitative real-time PCR using the murine primer probe set RTS3313 (forward sequence […], designated herein as SEQ ID NO: 2228; reverse sequence […], designated herein as SEQ ID NO: 2229; probe sequence […], designated herein as SEQ ID NO: 2230). PKK mRNA levels were adjusted according to total RNA content, as measured by RIBOGREEN.
The chimeric antisense oligonucleotides were designed as 5-10-5 MOE gapmers. The gapmers are 20 nucleotides in length, wherein the central gap segment is comprised of ten 2′-deoxynucleosides and is flanked on both sides (in the 5′ and 3′ directions) by wings comprising 5 nucleosides each. Each nucleoside in the 5′ wing segment and each nucleoside in the 3′ wing segment has a 2′-O-methoxyethyl modification. The internucleoside linkages throughout each gapmer are phosphorothioate linkages. All cytosine residues throughout each gapmer are 5-methylcytosines.
ISIS 482584 is targeted to SEQ ID NO: 11 (GENBANK Accession No. NM_008455.2) and has a target start site of 1586 and a target stop site of 1605. “Target start site” indicates the 5′-most nucleotide to which the gapmer is targeted. “Target stop site” indicates the 3′-most nucleotide to which the gapmer is targeted.

[3] = tested on: thrombus formation; test: Stenosis-induced inferior vena cava thrombosis model, thrombi weights (Example 22); type: in vivo, mouse; conditions: BALB/c mice; for Thrombi weight: 24 hrs after stenosis
Procedure: Reduced blood flow and endothelial damage are hallmarks of this model, also known as the St. Tomas model.
Four groups of 6-8 BALB/c mice were treated with 5 mg/kg, 10 mg/kg, 20 mg/kg, or 40 mg/kg of ISIS 482584, administered subcutaneously twice a week for 3 weeks (weekly doses of 10 mg/kg, 20 mg/kg, 40 mg/kg, or 80 mg/kg). A control group of 8 BALB/c mice was treated with PBS, administered subcutaneously twice a week for 3 weeks. Two days after the last dose of antisense oligonucleotide or PBS was administered, mice from all groups were anesthetized with 2.5% inhalant isoflurane. The IVC of the mice was exposed via a midline abdominal incision below the left renal vein, and was separated from the abdominal aorta by blunt dissection. A 6-0 silk tie (Ethicon, UK) was placed behind the blood vessel just below the left renal vein and a metal 4-0 suture (Ethicon, UK) was placed longitudinally over the IVC to tie the silk tie on top. The metal suture was then removed. Two neurovascular surgical clips (Braun Medical Inc, PA) were placed at two separate positions below the ligation for 20 seconds each, after which they were removed. The abdominal cavity contents were then replaced and the abdomen was closed. After 24 hrs, the IVC was exposed and checked for thrombi formation. All thrombi formed were collected and fixed in 10% formalin for 24 hrs.
The thrombi were weighed and the results are presented in Table 85, expressed in milligrams.

[4] = Kidney function: plasma BUN and creatinine in cynomolgus monkeys (Example 8)
Procedure: Prior to the study, the monkeys were kept in quarantine for a 30-day period, during which the animals were observed daily for general health. The monkeys were 2-4 years old and weighed between 2 and 4 kg. Ten groups of four randomly assigned male cynomolgus monkeys each were injected subcutaneously with ISIS oligonucleotide or PBS. PBS solution or ISIS oligonucleotides at a dose of 40 mg/kg were administered initially with a loading regimen consisting of four doses on the first week of the study (days 1, 3, 5, and 7), followed by a maintenance regimen consisting of once weekly administration starting on Day 14 (weeks 2 to 13). Subcutaneous injections were performed in clock-wise rotations at 4 sites on the back; one site per dose. The injection sites were delineated by tattoo, while sedated using ketamine, and were separated by a minimum of 3 cm.
To evaluate the effect of ISIS oligonucleotides on kidney function, the monkeys were fasted overnight. Approximately, 1.5 mL of blood samples were collected from all the study groups. Blood was collected in tubes without anticoagulant for serum separation. The tubes were kept at room temperature for a minimum of 90 min and then centrifuged at 3,000 rpm for 10 min. Levels of BUN and creatinine were measured using a Toshiba 120FR NEO chemistry analyzer (Toshiba Co., Japan).

[5] = Tolerability / clinical observation of cynomolgus monkeys (Example 8); type: in vivo, cynomolgus monkey; conditions: primates, Example 8
In short: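 Cynomolgus monkeys received ISIS antisense oligonucleotides cross-reactive with the rhesus target sequence. Animals were checked at least once daily for signs of illness or distress, and animals in poor or moribund condition were flagged for further monitoring.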

## NC(N)=NCCC[C@@H](N)C(=O)N[C@@H](CCCN=C(N)N)C(=O)N1CCC[C@H]1C(=O)N1C[C@H](O)C[C@H]1C(=O)NCC(=O)N[C@@H](Cc1cccs1)C(=O)N[C@@H](CO)C(=O)N1Cc2ccccc2C[C@@H]1C(=O)N1[C@H](C(=O)N[C@@H](CCCN=C(N)N)C(=O)O)C[C@@H]2CCCC[C@@H]21 [HOE-140, Icatibant, reference compound]
[1]
  OD600 nm of Evans Blue dye, Colon: 0.14
  OD600 nm of Evans Blue dye, Ears: 0.008
  OD600 nm of Evans Blue dye, Feet: 0.04
  OD600 nm of Evans Blue dye, Intestines: 0.08

## ISIS 482584: 5-10-5 MOE gapmer targeting murine PKK, GGCATATTGGTTTTTGGAAT; SEQ ID NO: 2244 (antisense eG*eG*e[5mC]*eA*eT*dA*dT*dT*dG*dG*dT*dT*dT*dT*dT*eG*eG*eA*eA*eT)
[2]; 12.5 nM
  % inhibition of mouse PKK mRNA levels: 0%
[2]; 25.0 nM
  % inhibition of mouse PKK mRNA levels: 47%
[2]; 50.0 nM
  % inhibition of mouse PKK mRNA levels: 27%
[2]; 100.0 nM
  % inhibition of mouse PKK mRNA levels: 60%
[2]; 200.0 nM
  % inhibition of mouse PKK mRNA levels: 82%
[2]; 12.5-200.0 nM, ~24 h, read-out: half maximal inhibitory concentration (IC50)
  IC50: 84 nM
[3]; 10 mg/kg/wk sc 3 weeks
  Thrombi weight: 8 mg
[3]; 20 mg/kg/wk sc 3 weeks
  Thrombi weight: 6 mg
[3]; 40 mg/kg/wk sc 3 weeks
  Thrombi weight: 5 mg
[3]; 80 mg/kg/wk sc 3 weeks
  Thrombi weight: 3 mg
[3]; increasing doses 5-40 mg/kg s.c. twice a week for 3 weeks
  thrombus weight: corresponding decrease in thrombus weight

## Tes Ges mCes Aes Aes Gds Tds mCds Tds mCds Tds Tds Gds Gds mCds Aes Aes Aes mCes Ae [ISIS 546254]
[4]; 40 mg/kg s.c.
  Plasma BUN: 25.7 mg/dL
  Plasma Creatinine: 0.9 mg/dL
[4]; plasma chemistry
  effect on kidney function: well tolerated in terms of the kidney function
[5]
  tolerability in primates: tolerable in primates
